According to ChEMBL document CHEMBL1817626, “The structure-activity relationship of urea derivatives as anti-tuberculosis agents” (Bioorg Med Chem, 2011):
Converted amounts (≈) assume the structure as drawn. The source made the active and inactive calls. The rule behind the calls is not given here.

Tests used:
Klebsiella pneumoniae = assay: Antibacterial activity against Klebsiella pneumoniae; type: functional
Staphylococcus aureus = assay: Antibacterial activity against Staphylococcus aureus; type: functional
[1] = tested on: Mycobacterium tuberculosis; assay: microbe, parasite or virus in culture; conditions: H37Rv, 168 h
[2] = molecular target: T1, Bifunctional epoxide hydrolase 2 (Homo sapiens, UniProt P34913); assay: Inhibition of human recombinant soluble epoxide hydrolase using CMNPC as substrate after 10 mins by fluorescent assay
T1 sequence (P34913 whole entry): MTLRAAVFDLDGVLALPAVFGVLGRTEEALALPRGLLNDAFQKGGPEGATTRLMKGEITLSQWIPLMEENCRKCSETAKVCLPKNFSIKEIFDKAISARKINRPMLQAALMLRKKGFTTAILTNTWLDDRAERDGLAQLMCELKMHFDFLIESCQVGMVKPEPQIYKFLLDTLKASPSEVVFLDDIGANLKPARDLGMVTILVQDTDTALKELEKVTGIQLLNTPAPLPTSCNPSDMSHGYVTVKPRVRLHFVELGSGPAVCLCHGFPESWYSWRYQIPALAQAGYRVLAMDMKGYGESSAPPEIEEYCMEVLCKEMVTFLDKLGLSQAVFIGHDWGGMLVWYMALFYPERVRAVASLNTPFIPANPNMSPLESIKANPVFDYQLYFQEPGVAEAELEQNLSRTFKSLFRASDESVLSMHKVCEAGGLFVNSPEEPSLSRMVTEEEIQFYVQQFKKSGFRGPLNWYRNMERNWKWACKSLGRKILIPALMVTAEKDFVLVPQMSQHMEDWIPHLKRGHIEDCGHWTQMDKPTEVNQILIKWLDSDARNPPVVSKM

Vero = assay: Cytotoxicity against african green monkey Vero cells after 72 hrs by MTT assay; type: cell-based; conditions: Chlorocebus sabaeus
[3] = molecular target: T2, Hydrolase, alpha/beta hydrolase fold family (Mycobacterium tuberculosis) (UniProt O69638); assay: Inhibition of Mycobacterium tuberculosis recombinant EphE expressed in Escherichia coli BL21 using CMNPC as substrate at 10 nM after 30 mins by fluorescent assay relative to control
T2 sequence (whole entry): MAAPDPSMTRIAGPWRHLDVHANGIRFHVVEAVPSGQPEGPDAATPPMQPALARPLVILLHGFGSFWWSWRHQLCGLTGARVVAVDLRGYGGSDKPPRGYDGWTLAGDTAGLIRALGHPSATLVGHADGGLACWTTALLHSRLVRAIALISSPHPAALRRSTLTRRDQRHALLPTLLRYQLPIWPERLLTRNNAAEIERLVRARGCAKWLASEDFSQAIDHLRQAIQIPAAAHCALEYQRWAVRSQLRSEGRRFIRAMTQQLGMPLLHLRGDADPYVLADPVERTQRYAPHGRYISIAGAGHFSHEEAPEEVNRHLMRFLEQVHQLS

Enterococcus faecium = assay: Antibacterial activity against Enterococcus faecium; type: functional
[4] = molecular target: T3, Epoxide hydrolase B (Mycobacterium tuberculosis) (UniProt P95276); assay: Inhibition of Mycobacterium tuberculosis recombinant EphB expressed in Escherichia coli BL21 using CMNPC as substrate at 10 nM after 30 mins by fluorescent assay relative to control
T3 sequence (whole entry): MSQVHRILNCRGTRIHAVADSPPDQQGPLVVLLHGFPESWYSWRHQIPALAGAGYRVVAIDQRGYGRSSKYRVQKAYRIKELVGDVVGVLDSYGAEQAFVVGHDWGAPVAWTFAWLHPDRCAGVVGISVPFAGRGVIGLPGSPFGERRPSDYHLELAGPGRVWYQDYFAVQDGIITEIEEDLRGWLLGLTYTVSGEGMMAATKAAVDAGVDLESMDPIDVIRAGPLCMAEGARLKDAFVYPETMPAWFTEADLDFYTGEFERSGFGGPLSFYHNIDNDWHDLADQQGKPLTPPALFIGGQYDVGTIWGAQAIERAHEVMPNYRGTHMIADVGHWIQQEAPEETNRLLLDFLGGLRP

Escherichia coli [5] = assay: Antibacterial activity against Escherichia coli […] TolC; type: functional
[6] = tested on: Mycolicibacterium smegmatis; assay: microbe, parasite or virus in culture; conditions: str. MC2 155, 168 h
Bacillus anthracis = assay: microbe, parasite or virus in culture
Escherichia coli [7] = assay: Antibacterial activity against Escherichia coli K12; type: functional; conditions: K-12
Pseudomonas aeruginosa = assay: Antibacterial activity against Pseudomonas aeruginosa; type: functional
Enterococcus faecalis = assay: Antibacterial activity against Enterococcus faecalis; type: functional

Row | SMILES | MIC (Klebsiella pneumoniae) | MIC (Staphylococcus aureus) | MIC [1] | IC50 [2] | IC50 (Vero) | inhibition [3] | MIC (Enterococcus faecium) | inhibition [4] | MIC (Escherichia coli [5]) | MIC [6] | MIC (Bacillus anthracis) | MIC (Escherichia coli [7]) | MIC (Pseudomonas aeruginosa) | MIC (Enterococcus faecalis)
1 | Cc1ccc(NC(=O)NCc2cccc(F)c2)cc1Cl | > 200 µg/mL | > 200 µg/mL | 6 µg/mL (≈ 20.5 µM) | 16.6 nM | 342 µg/mL (≈ 1170 µM) | 19% | > 200 µg/mL | 18.6% | > 200 µg/mL | > 200 µg/mL | > 200 µg/mL | > 200 µg/mL | > 200 µg/mL | > 200 µg/mL
2 | CCCCCCCNC(=O)Nc1ccc(C)c(Cl)c1 | > 200 µg/mL | > 200 µg/mL | 3.1 µg/mL (≈ 11 µM) | 1.6 nM | 186 µg/mL (≈ 659 µM) | 99.3% | > 200 µg/mL | 91% | > 200 µg/mL | > 200 µg/mL | > 200 µg/mL | > 200 µg/mL | > 200 µg/mL | > 200 µg/mL
3 | CC(C)OCCNC(=O)NC12CC3CC(CC(C3)C1)C2 | > 200 µg/mL | > 200 µg/mL | 25 µg/mL (≈ 89.2 µM) | 260 nM | 6.4 µg/mL (≈ 22.8 µM) | 14.7% | > 200 µg/mL | 11.9% | > 200 µg/mL | 200 µg/mL (≈ 713 µM) | > 200 µg/mL | > 200 µg/mL | > 200 µg/mL | > 200 µg/mL
4 | COC(=O)c1ccc(NC(=O)NC23CC4CC(CC(C4)C2)C3)cc1O | > 200 µg/mL | > 200 µg/mL | 0.4 µg/mL (≈ 1.16 µM) | 1.2 nM | 30.3 µg/mL (≈ 88 µM) | 79.5% | > 200 µg/mL | 26.9% | > 200 µg/mL | 50 µg/mL (≈ 145 µM) | > 200 µg/mL | > 200 µg/mL | > 200 µg/mL | > 200 µg/mL
5 | CCCCCCCNC(=O)NC1C2CC3CC(C2)CC1C3 (stereo not given) | > 200 µg/mL | > 200 µg/mL | 0.2 µg/mL (≈ 0.684 µM) | 0.5 nM | 20 µg/mL (≈ 68.4 µM) | 99.9% | > 200 µg/mL | 37.1% | > 200 µg/mL | 1.6 µg/mL (≈ 5.47 µM) | > 200 µg/mL | > 200 µg/mL | > 200 µg/mL | > 200 µg/mL
6 | O=C(NCc1ccccc1)NC1C2CC3CC(C2)CC1C3 (stereo not given) | > 200 µg/mL | > 200 µg/mL | 3.1 µg/mL (≈ 10.9 µM) | 14.8 nM | 4.2 µg/mL (≈ 14.8 µM) | 34.1% | > 200 µg/mL | inactive | > 200 µg/mL | 100 µg/mL (≈ 352 µM) | > 200 µg/mL | > 200 µg/mL | > 200 µg/mL | > 200 µg/mL
7 | O=C(Nc1cccc(C(F)(F)F)c1F)NC1CCCCCCC1 | > 200 µg/mL | > 200 µg/mL | 0.8 µg/mL (≈ 2.41 µM) | 0.4 nM | 25.3 µg/mL (≈ 76.1 µM) | 56.3% | > 200 µg/mL | 17% | 25 µg/mL (≈ 75.2 µM) | 0.4 µg/mL (≈ 1.2 µM) | 3.12 µg/mL (≈ 9.39 µM) | > 200 µg/mL | > 200 µg/mL | > 200 µg/mL
8 | CCCCCNC(=O)NC1C2CC3CC(C2)CC1C3 (stereo not given) | > 200 µg/mL | > 200 µg/mL | 0.39 µg/mL (≈ 1.47 µM) | 6.4 nM | 11.6 µg/mL (≈ 43.9 µM) | 90.5% | > 200 µg/mL | 58.6% | > 200 µg/mL | 12.5 µg/mL (≈ 47.3 µM) | > 200 µg/mL | > 200 µg/mL | > 200 µg/mL | > 200 µg/mL
9 | CC1C(NC(=O)Nc2ccc(F)c(F)c2F)CC2CC1C2(C)C (stereo not given) | > 200 µg/mL | 3.12 µg/mL (≈ 9.56 µM) | 0.02 µg/mL (≈ 0.0613 µM) | 0.4 nM | 16 µg/mL (≈ 49 µM) | 86.1% | > 200 µg/mL | 76.3% | 1.6 µg/mL (≈ 4.9 µM) | 0.8 µg/mL (≈ 2.45 µM) | 3.12 µg/mL (≈ 9.56 µM) | > 200 µg/mL | > 200 µg/mL | > 200 µg/mL
10 | Cc1ccc(NC(=O)NC(C)CCc2ccccc2)cc1Cl (stereo not given) | > 200 µg/mL | > 200 µg/mL | 6 µg/mL (≈ 18.9 µM) | 15 nM | > 400 µg/mL | 97.4% | > 200 µg/mL | 81.9% | > 200 µg/mL | 25 µg/mL (≈ 78.9 µM) | > 200 µg/mL | > 200 µg/mL | > 200 µg/mL | > 200 µg/mL
11 | O=C(NCC12CC3CC(CC(C3)C1)C2)Nc1ccc(F)c(F)c1F | > 200 µg/mL | 3.12 µg/mL (≈ 9.22 µM) | 0.01 µg/mL (≈ 0.0296 µM) | 0.4 nM | 1.18 µg/mL (≈ 3.49 µM) | 90.8% | > 200 µg/mL | 44.2% | 1.6 µg/mL (≈ 4.73 µM) | 0.8 µg/mL (≈ 2.36 µM) | 1.6 µg/mL (≈ 4.73 µM) | > 200 µg/mL | 50 µg/mL (≈ 148 µM) | > 200 µg/mL
12 | O=C(Nc1ccc(F)c(F)c1F)NC1CCCCC1 | > 200 µg/mL | > 200 µg/mL |  | 1.2 nM | 15.9 µg/mL (≈ 58.4 µM) | 65.6% | > 200 µg/mL | 96.4% | > 200 µg/mL | 12.5 µg/mL (≈ 45.9 µM) | > 200 µg/mL | > 200 µg/mL | > 200 µg/mL | > 200 µg/mL
13 | CC1(C)C2CCC(CNC(=O)Nc3ccc(F)c(F)c3F)C1C2 (stereo not given) | > 200 µg/mL | 3.13 µg/mL (≈ 9.59 µM) | 0.2 µg/mL (≈ 0.613 µM) | 0.4 nM | 15.5 µg/mL (≈ 47.5 µM) | 103% | > 200 µg/mL | 38.6% |  | 1.6 µg/mL (≈ 4.9 µM) | 1.6 µg/mL (≈ 4.9 µM) | > 200 µg/mL | > 200 µg/mL | > 200 µg/mL
